This note sets out measurements from patent US20230285481A1, “TREATMENT OF CANCER HARBORING MUTATIONS IN THE TP53 GENE AND/OR POST-TRANSLATIONAL MODIFICATIONS IN THE P53 PROTEIN WITH PARVOVIRUSES” (UNIVERSIDAD AUTÓNOMA DE MADRID, priority 2018, published 2023).

Holding throughout (type): cell-based, human
The subject of experiment [1] is U87-MG glioblastoma cells. In words: MVM infection markers (NS1, Pp53-S15, vDNA) by IF-confocal, Southern and western blot in U87-MG.
Description: Immunofluorescence analyses were performed on neurospheres of hGSCs (human glioblastoma stem cells) and established adherent cell lines as follows: • Neurosphere staining. The cell spheres were fixed for 30 minutes with paraformaldehyde (PFA) 4%, then permeabilized for 10 minutes at room temperature with 0.1% Triton X-100 (Merck) in PBS, and blocked by incubating 20 minutes with 0.1% Triton X-100 and 10% fetal bovine serum (Sigma) in PBS. Neurospheres were incubated in the same buffer with the primary antibodies indicated in the figures for 1 h at 37° C., and finished by four five-minute PBS washes. Then neurospheres were incubated with the secondary antibodies at appropriate concentrations in the same buffer and conditions, and finally stained with DAPI for half an hour and mounted embedding at 37° C. in 0.8% agarose-LGT prepared in PBS. Embedded neurospheres were applied as 200 microliters drops on pre-cooled large (2×3 cm) coverslips and stored at 4° C. in the dark until confocal analysis. • Adherent cells. The cell lines were seeded on coverslips, treated as indicated in the figures and fixed for 10 minutes with 4% paraformaldehyde. Staining with antibodies was carried out essentially as described above for the neurospheres. Cells were mounted with Fluoromount G (Southern Biotech). Preparations were kept at least 16 h at room temperature in the dark before observation under a microscope. • Analysis of virus replication by FISH. This method was used to determine the degree of replication of the parvovirus MVM genome. The probe used was a mixture of three DNA oligonucleotides labeled at the 3′ terminal end with the Cy5 fluorophore, and complementary to different sequences of the MVM genome. […] The images were processed with Adobe Photoshop CS5 programs (Adobe Systems Incorporated) and ImageJ/FIJI (http://rsb.info.nih.gov/ij/) taking the same samples as a zero-signal reference without antibodies (auto-fluorescence control), or only with secondary antibodies. […]
Experiment [2] relates to U373-MG glioblastoma cells. Put plainly: Clonogenic analysis of cell viability (colony formation) in U373-MG. The note with it: single agent: CisPt 1-hour treatment, or MVMp singly inoculated at two MOI.
Description: Consequently, the CisPt dose effect on different MVMp life cycle parameters, and on p53 phosphorylation and functional signaling in U373-MG cells, was analyzed. For this, the U373-MG cells treated with Cis-Platinum doses (10-120 microM) for 1 hour at 37° C. were inoculated with MVMp to allow adsorption, and then of the infection was allowed to progress for 24 hours. Cells were sampled and processed for virus macromolecular markers and Pp53-S15 determinations.
We finally analyzed whether these MVM/CisPt cooperative effects impact cancer cells viability, and therefore whether they imply a therapeutic significance.
For experiment [3], the system named is U373-MG glioblastoma cells. Put plainly: MVM infection markers (NS1, Pp53-S15, vDNA) by cytometry, IF-confocal and western blot in U373-MG. From the text: In all the experiments, a minimum of 30,000 events per sample were acquired in a FACSCantoII cytometer (BD Biosciences), which were pre-selected by a region based on their size and complexity (FSC and SSC parameters, respectively) in order to exclude cellular debris and other contaminating particles. The CellQuest software (BD Biosciences) was used to acquire the events and the FlowJo software (Tree Star) was used to analyze the data. The cell cycle analysis was in accordance to [Gil-Ranedo, J., Hernando, E., Riolobos, L., Dominguez, C., Kann, M, and José M Almendral. 2015. The mammalian cell cycle regulates nuclear parvovirus capsid assembly. PlosPathogens, 11; 11 (6): e1004920]. For staining, cells were permeabilized with PBS+0.1% triton X-100 for 10 minutes at room temperature, then blocked with the same buffer supplemented with 1% FCS for 20 minutes. Cells were re-suspended in PBS (pH 7.2)+0.5% BSA and the primary antibodies indicated in the figures were added followed by 1 h stirring at 37° C. Cells were washed in PBS and the secondary antibodies were added and incubated similarly. Two further washes in PBS were made before analyzing the samples in the flow cytometer.
Immunofluorescence analyses were performed on neurospheres of hGSCs (human glioblastoma stem cells) and established adherent cell lines as follows: • Neurosphere staining. The cell spheres were fixed for 30 minutes with paraformaldehyde (PFA) 4%, then permeabilized for 10 minutes at room temperature with 0.1% Triton X-100 (Merck) in PBS, and blocked by incubating 20 minutes with 0.1% Triton X-100 and 10% fetal bovine serum (Sigma) in PBS. Neurospheres were incubated in the same buffer with the primary antibodies indicated in the figures for 1 h at 37° C., and finished by four five-minute PBS washes. Then neurospheres were incubated with the secondary antibodies at appropriate concentrations in the same buffer and conditions, and finally stained with DAPI for half an hour and mounted embedding at 37° C. in 0.8% agarose-LGT prepared in PBS. Embedded neurospheres were applied as 200 microliters drops on pre-cooled large (2×3 cm) coverslips and stored at 4° C. in the dark until confocal analysis. • Adherent cells. The cell lines were seeded on coverslips, treated as indicated in the figures and fixed for 10 minutes with 4% paraformaldehyde. Staining with antibodies was carried out essentially as described above for the neurospheres. Cells were mounted with Fluoromount G (Southern Biotech). Preparations were kept at least 16 h at room temperature in the dark before observation under a microscope. • Analysis of virus replication by FISH. This method was used to determine the degree of replication of the parvovirus MVM genome. The probe used was a mixture of three DNA oligonucleotides labeled at the 3′ terminal end with the Cy5 fluorophore, and complementary to different sequences of the MVM genome. Cells adhered and fixed in 4% paraformaldehyde were permeabilized for 10 minutes with 0.2% Triton X-100 (Merck) in PBS and equilibrated for 5 minutes at room temperature in 2×SSC (0.3 M NaCl; 30 mM Na2C6H5O7, pH 7) supplemented with 15% formamide. Hybridization was with 500 ng/ml of each oligonucleotide in FISH buffer (5×SSC, 0.5% SDS, 10% dextran sulfate, 50% formamide) for 2.5 hours at 37° C. The preparations were washed twice with 2×SSC, 15% formamide for 30 minutes. […]

Molecules are shown by their SMILES.

Regarding `O=c1[nH]cc(F)c(=O)[nH]1` [5FU, 5-fluorouracil], the “p53 phosphorylation at the Ser15 residue” value in experiment [1] (uninfected U87-MG cells, IF-confocal) is given as “substantially increased”.

As to `N.N.[Cl][Pt][Cl]` [CisPt, Cisplatin], the “cell viability (clonogenic assay)” value in experiment [2] was “progressively decreased the viability”. For the same compound, the “NS1 levels by western blot” value in experiment [3] (MVMp infected U373-MG, 5 to 20 microM CisPt) was “increasing NS1 levels”. Further, the “virus genome (vDNA) replication levels” value in experiment [3] (MVMp infected U373-MG, IF-confocal, CisPt dose effect) is reported as “benefitted from 10 microM CisPt but not from higher doses”. Moreover, in experiment [3] (MVMp infected U373MG, flow cytometry, combined treatment with single dose of CD versus simple infection), the “percentage of cells expressing NS1 and level of NS1 expression” value is on record as “highest increase”. Besides, in experiment [3] (U373-MG, IF-confocal, 5-20 microM Cis-Pt, 1 hour, then MVMp 24 hours), the Pp53-S15 levels entry is “significant increase”. Moreover, the Pp53-S15 induction entry in experiment [3] (U373MG, flow cytometry, single dose, also in treated non-infected cells) is given as “generalized Pp53-S15 induction in all cells”. In addition, the “percentage of NS1+ cells after drug pre-treatment” value in experiment [1] (U87-MG treated with different Cis-Pt doses prior to MVMp infection) is “very significant increase”. Moreover, the “MVMp genome replication (vDNA) after drug pre-treatment” value in experiment [1] (U87-MG, Cis-Pt dose effect, MVMp infection) is reported as “benefitted from the 10 or 20 microM Cis-Pt treatment, but not from higher doses”.
